Each structure is given as a SMILES string. Several values for one entry are separate records, joined by “and”; a condition that tells them apart may be missing. Equal entries are not always repeated. Entries after “also recorded” stand apart in the source; their conditions may differ. Where two headings read alike, the source gives them in different places.

One may read the ED50 as the midpoint of the dose-response relation. By half-life is commonly meant the time in which the quantity being followed falls by half. Higher therefore signals slow decline.

Data set [1] concerns rats. Particulars: rat, in vivo, iv.
Data set [2] relates to rats. In words: heart rate and blood pressure in rats at equianesthetic doses. Particulars: for increase in heart rate shortly after injection / duration of significant effect on mean blood pressure / maximum decrease in mean blood pressure relative to baseline: IV, twice ED50 for LORR; for maximum decrease in mean blood pressure relative to baseline: n=3.
For data set [3], the system named is rats. The experiment in a line: loss of righting reflex (LORR) in rats after IV bolus. The data set is classed as in vivo. Particulars: for ED50: Rattus norvegicus; for ED50 / slope of duration of LORR versus logarithm of anesthetic dose: rats, IV bolus; for anesthetic toxicity in rats: highest doses. The method, then:
Rats were briefly restrained in a 3 inch diameter, 9 inch long acrylic chamber with a tail exit port. The desired dose of anesthetic was injected through a lateral tail vein catheter followed by an approximately 1 ml normal saline flush. Immediately after injection, rats were removed from the restraint device and turned supine. […] A stop-watch was used to measure the duration of LORR, which was defined as the time from drug injection until the animal spontaneously righted itself. The ED50 for LORR upon bolus anesthetic administration was determined from the anesthetic dose-dependence of LORR.

For data set [4], the system named is patients. Conditions: cited from earlier work.
Data set [5] relates to Xenopus laevis tadpoles. Particulars: Husain et al. 2003, read-out: EC50 / free-aqueous concentration inducing loss of righting reflexes in tadpoles; cited from earlier work.
The test system of data set [6] is humans. Conditions: Arden et al. 1986; cited from earlier work.
Data set [7] relates to rats. The experiment in a line: ACTH1-24-stimulated serum corticosterone in rats (adrenocortical function). Particulars: 30 min after equianesthetic dose.
Data set [8] addresses T1, Human GABAA receptors composed of α1β2γ2L subunits (Homo sapiens, UniProt P14867+P47870).
T1 construct: expressed in transfected cells; host or cells: Xenopus laevis oocytes
The experiment in a line: two-microelectrode voltage clamp of GABAA receptor currents in Xenopus oocytes. In kind it is cell-based. Particulars: for enhancement of amplitudes of GABA-evoked currents: EC5-10 GABA, each anesthetic at its anesthetic EC50 (8 μM MOC-(R)-etomidate, 2 μM (R)-etomidate), n=6 oocytes; for direct activation of GABAA receptors: before application of GABA.

Data set [9] has as its system Xenopus laevis tadpoles. The experiment in a line: tadpole loss of righting reflex assay.
Data set [10] can be described thus: in-vitro metabolism in pooled human S9 liver fraction. Particulars: for half-life at 10 μM: human, s9; for rate of metabolism relative to (R)-etomidate: liver enzymes, S9.
Data set [11] has as its system animals. Conditions: LD50/ED50; cited from earlier work.

T1 sequence (P14867 28-456): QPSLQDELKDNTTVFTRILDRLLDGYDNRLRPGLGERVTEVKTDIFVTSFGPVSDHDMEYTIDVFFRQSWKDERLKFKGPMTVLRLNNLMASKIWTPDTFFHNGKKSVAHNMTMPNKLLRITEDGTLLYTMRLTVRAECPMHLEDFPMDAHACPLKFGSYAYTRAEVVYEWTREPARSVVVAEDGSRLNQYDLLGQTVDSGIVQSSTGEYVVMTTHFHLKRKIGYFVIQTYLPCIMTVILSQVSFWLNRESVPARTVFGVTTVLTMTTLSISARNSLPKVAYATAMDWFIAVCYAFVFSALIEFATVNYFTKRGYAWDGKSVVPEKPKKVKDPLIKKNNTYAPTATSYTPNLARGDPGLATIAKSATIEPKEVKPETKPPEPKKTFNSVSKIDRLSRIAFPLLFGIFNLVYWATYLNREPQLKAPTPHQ
T1 sequence (P47870 25-512 limits assumed): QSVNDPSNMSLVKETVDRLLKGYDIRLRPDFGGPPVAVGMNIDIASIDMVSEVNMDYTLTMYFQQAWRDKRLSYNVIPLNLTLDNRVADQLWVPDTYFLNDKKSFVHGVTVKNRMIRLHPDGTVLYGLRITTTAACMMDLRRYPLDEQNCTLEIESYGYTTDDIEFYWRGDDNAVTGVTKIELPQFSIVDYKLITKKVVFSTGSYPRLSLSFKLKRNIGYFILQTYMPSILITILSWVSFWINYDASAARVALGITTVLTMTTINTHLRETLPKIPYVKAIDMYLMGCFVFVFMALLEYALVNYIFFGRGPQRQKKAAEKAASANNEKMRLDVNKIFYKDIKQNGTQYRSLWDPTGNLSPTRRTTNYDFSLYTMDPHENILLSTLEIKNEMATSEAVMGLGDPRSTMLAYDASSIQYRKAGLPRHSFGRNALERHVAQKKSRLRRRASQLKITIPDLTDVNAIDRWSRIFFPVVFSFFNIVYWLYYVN
T1 sequence (P18507 40-475 partner): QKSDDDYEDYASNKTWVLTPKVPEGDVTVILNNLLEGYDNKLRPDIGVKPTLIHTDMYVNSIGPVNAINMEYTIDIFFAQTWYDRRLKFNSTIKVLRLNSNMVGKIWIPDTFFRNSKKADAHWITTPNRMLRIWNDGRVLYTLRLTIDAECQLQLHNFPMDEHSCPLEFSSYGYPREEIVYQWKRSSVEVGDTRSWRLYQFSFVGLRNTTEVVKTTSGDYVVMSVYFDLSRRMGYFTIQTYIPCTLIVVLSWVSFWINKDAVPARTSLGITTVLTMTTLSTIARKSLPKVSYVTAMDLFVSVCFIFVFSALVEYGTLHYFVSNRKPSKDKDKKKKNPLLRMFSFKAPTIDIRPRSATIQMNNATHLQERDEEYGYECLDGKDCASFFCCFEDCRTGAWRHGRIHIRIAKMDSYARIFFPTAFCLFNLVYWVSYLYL

Take `CCOC(=O)c1cncn1[C@H](C)c1ccccc1` (stereo in doubt) [(R)-etomidate, ethyl 3-(1-phenylethyl)imidazole-4-carboxylate]: in data set [1], the “duration of significant effect on mean blood pressure” value (from here on “duration of significant effect”) came to 6.5 min and the “maximum decrease in mean blood pressure relative to baseline” value is on record as −36±11 mmHg. The “increase in heart rate shortly after injection” value (“increase in heart rate shortly” for short) in data set [2] is listed as 49±67 BPM. In data set [3], the ED50 amounted to 1 ± 0.03 mg/kg, the “anesthetic toxicity in rats” value is “no obvious anesthetic toxicity” and the “slope of duration of LORR versus logarithm of anesthetic dose” value is on record as 27±7.

With `CCOC(=O)c1cncn1[C@H](C)c1ccccc1` [(R)-etomidate, ethyl 3-(1-phenylethyl)imidazole-4-carboxylate], the “duration of adrenal suppression after single bolus induction dose” value in data set [4] (critically ill patients) was at least 24 h. In addition, the “persistence of adrenal insufficiency after discontinuing prolonged infusion” value in data set [4] (doses producing general anesthesia) was “more than 4 days”. In addition, the EC50 in data set [5] is ~2000 nM and 2000 nM. In addition, the “free-aqueous concentration inducing loss of responsiveness” value in data set [6] is around 2 µM. Also, in data set [7], the “ACTH1-24-stimulated corticosterone concentration versus vehicle” value was “significantly lower; also recorded: significantly reduced”. Further, in data set [8], the “enhancement of amplitudes of GABA-evoked currents” value is 660±240% and the “direct activation of GABAA receptors” value is listed as “evoked small currents”.

As for `COC(=O)CCOC(=O)c1cncn1[C@H](C)c1ccccc1` [MOC-(R)-etomidate, (R)-3-Methoxy-3-oxopropyl1-(1-phenylethyl)-1H-imidazole-5-carboxylate], in [9] (0.1-128 μM, recovery in fresh oxygenated water), the toxicity in tadpoles entry is on record as “No evidence of toxicity was observed”. In addition, in data set [9] (Xenopus laevis, read-out: anesthetic EC50 (loss of righting reflexes)), the EC50 amounted to 8000 ± 2000 nM. The “fraction of tadpoles anesthetized” value in data set [9] (highest concentrations, 48-128 μM) is on record as “all tadpoles were anesthetized”. In [2], the “duration of significant effect” value stood at 30 s, the “increase in heart rate shortly” value was 24±33 BPM and the “maximum decrease in mean blood pressure relative to baseline” value is on record as −11±15 mmHg. Moreover, the “duration of reduction in blood pressure” value in data set [2] (summary) came out at 30 s. The “percent of original concentration remaining” value in data set [10] (by 40 min) is below 1%. Moreover, the percent metabolized result in [10] (by 40 min, +NADPH, 37° C.) is “more than 99%”. This compound also returned a concentration remaining in [10] (by 40 min, start 10 μM) below 100 nM. In addition, in [10], the half-life at 10 μM came to 4.2 min and the “rate of metabolism relative to (R)-etomidate” value is listed as “at least 100 fold”. Further, the “rate of metabolism relative to (R)-etomidate” value in [10] (listed as MOC-(R)-Etomidate) is recorded as above 100 fold. Moreover, in data set [3], the 50% effect level (ED50) was put at a dose of 5.2 ± 1 mg/kg, the “anesthetic toxicity in rats” value is on record as “no obvious anesthetic toxicity” and the “slope of duration of LORR versus logarithm of anesthetic dose” value was found to be 2.8±0.4. For the same compound, in [3] (equianesthetic doses), the “duration of LORR shorter versus propofol or (R)-etomidate” value is around 10 fold. The “anesthetic potency relative to (R)-etomidate's potency” value in data set [3] (two species (tadpoles, rats)) was “¼^th-⅕^th”. The “ACTH1-24-stimulated corticosterone concentration versus vehicle” value in [7] is “not different from those that had received only vehicle; also recorded: no reduction; also recorded: unchanged versus control”. Further, in [8], the “enhancement of amplitudes of GABA-evoked currents” value was 450±130% and the “direct activation of GABAA receptors” value was “evoked small currents”.

For `O=C1CC2(CCCC2)CC(=O)N1CCCCN1CCN(c2ncccn2)CC1` [buspirone], the half-life at 10 μM in data set [10] came out at 15.4 min.

Consider `CC(C)c1cccc(C(C)C)c1O` [propofol], for which, in [2], the “duration of significant effect” value amounted to 420 s, the “increase in heart rate shortly” value stood at 64±56 BPM and the “maximum decrease in mean blood pressure relative to baseline” value is reported as −51±19 mmHg. Besides, in [3], it took a dose of 4.1 ± 0.3 mg/kg to reach the 50% effect level (ED50), the “anesthetic toxicity in rats” value is “no obvious anesthetic toxicity” and the “slope of duration of LORR versus logarithm of anesthetic dose” value was determined as 22±4. Moreover, the therapeutic index in data set [11] is 3.1.

With `CCCC(C)C1(CC)C(=O)NC(=S)NC1=O` (stereo not shown) [thiopental], the therapeutic index in data set [11] is given as 4.6.

The values above are taken from US9181197B2 (priority 2008, dated 2015).
